From patent US6867320B2, “Substituted phenylalkanoic acid derivatives and use thereof” (Asahi Kasei Pharma Corporation, priority 2002, dated 2005)

These molecules were tested on PGE2 production from IL-1β-stimulated MG-63 cells (assay: Suppressing action on PGE2 production from IL-1β-stimulated MG-63 cells). Conditions: Homo sapiens, IL-1β 1 ng/ml, 18 hours, read-out: PGE2 production suppression ratio.
Assay type: cell-based
Excerpt: 1. Suppressing Action on PGE2 Production from IL-1β-Stimulated MG-63 Cells (1) Method for Measurement
An action of suppressing PGE2 production caused by interleukin (IL) 1β as an inflammatory stimulant was studied by the following method. Cells of MG-63, which is a human osteosarcoma cell line (purchased from Dainippon Pharmaceutical), were suspended in EMEM medium (GIBCO) containing 10% fetal bovine serum (BioFluid), and then inoculated to each well of 96-well culture plate at a density of 2×10^4 cells/well and cultured overnight. The medium was changed to EMEM medium containing 0.5% fetal bovine serum, and then a test compound was added with each well. Human interleukin-1β (ENDOGEN) was further added as an inflammatory stimulant at a final concentration of 1 ng/ml. The cells were further cultured for 18 hours. The culture supernatant was collected, and the PGE2 concentration in the culture supernatant was measured by using EIA kit (CAYMAN). By using a well which was not added with the stimulant as a negative control and a well which was added only with the stimulant as a positive control, suppression ratios on PGE2 production were calculated from produced amounts of PGE2 in the well added with the test compound using the following equation. PGE2 production suppression ratio=[1−(C−B)/(A−B)]×100 • A: PGE2 production amount of positive control • B: PGE2 production amount of negative control • C: PGE2 production amount in well added with test compound

SMILES	inhibition at 0.4 µM [%]
O=C(O)CCc1ccc(OCC2CCCC2)c(-c2ccc3ccc(O)cc3c2)c1 [Compound 008, 3-[4-cyclopentylmethyloxy-3-(7-hydroxynaphthalen-2-yl)-phenyl]propionic acid]	≥ 50
CN(C)c1ccc2cc(-c3cc(CCC(=O)O)ccc3OCC3CCCC3)ccc2c1 [Compound 018, 3-{4-cyclopentylmethyloxy-3-[6-(N,N-dimethylamino)naphthalen-2-yl]phenyl}propionic acid]	≥ 50
NS(=O)(=O)Nc1ccc2cc(-c3cc(CCC(=O)O)ccc3OCC3CCCC3)ccc2c1 [Compound 020, 3-[4-cyclopentylmethyloxy-3-(6-sulfamoylaminonaphthalen-2-yl)phenyl]propionic acid]	≥ 50
CS(=O)(=O)c1ccc2cc(-c3cc(CCC(=O)O)ccc3OCC3CCCC3)ccc2c1 [Compound 022, 3-[4-cyclopentylmethyloxy-3-(6-methanesulfonylnaphthalen-2-yl)phenyl]propionic acid]	≥ 50
NS(=O)(=O)c1ccc2cc(-c3cc(CCC(=O)O)ccc3OCC3CCCC3)ccc2c1 [Compound 024, 3-[4-cyclopentylmethyloxy-3-(6-sulfamoylnaphthalen-2-yl)phenyl]propionic acid]	≥ 50
CNS(=O)(=O)c1ccc2cc(-c3cc(CCC(=O)O)ccc3OCC3CCCC3)ccc2c1 [Compound 026, 3-{4-cyclopentylmethyloxy-3-[6-(N-methylsulfamoyl)naphthalen-2-yl]phenyl}propionic acid]	≥ 50
CN(C)S(=O)(=O)c1ccc2cc(-c3cc(CCC(=O)O)ccc3OCC3CCCC3)ccc2c1 [Compound 028, 3-{4-cyclopentylmethyloxy-3-[6-(N,N-dimethylsulfamoyl)naphthalen-2-yl]phenyl}propionic acid]	≥ 50
O=C(O)CCc1ccc(OCC2CCCCC2)c(-c2ccc3cc(C(=O)O)ccc3c2)c1 [Compound 029, 3-[3-(6-carboxynaphthalen-2-yl)-4-cyclohexylmethyloxyphenyl]propionic acid]	≥ 50
CCCCOc1ccc(CCC(=O)O)cc1-c1ccc2ccccc2c1 [Compound 037, 3-[4-butyloxy-3-(naphthalen-2-yl)phenyl]propionic acid]	≥ 50
CC(C)Oc1ccc(CCC(=O)O)cc1-c1ccc2ccccc2c1 [Compound 041, 3-[4-isopropyloxy-3-(naphthalen-2-yl)phenyl]propionic acid]	≥ 50
O=C(O)CCc1ccc(OCCC2CCCCC2)c(-c2ccc3ccccc3c2)c1 [Compound 049, 3-[4-(2-cyclohexylethyloxy)-3-(naphthalen-2-yl)phenyl]propionic acid]	≥ 50
O=C(O)CCc1ccc(OCc2ccco2)c(-c2ccc3ccccc3c2)c1 [Compound 058, 3-{4-[(furan-2-yl)methyloxy]-3-(naphthalen-2-yl)phenyl}propionic acid]	≥ 50
O=C(O)CCc1ccc(OCc2cccnc2)c(-c2ccc3ccccc3c2)c1 [Compound 060, 3-{3-(naphthalen-2-yl)-4-[(pyridin-3-yl)methyloxy]phenyl}propionic acid]	≥ 50
CCc1ccc(CCOc2ccc(CCC(=O)O)cc2-c2ccc3ccccc3c2)nc1 [Compound 062, 3-{4-[2-(5-ethylpyridin-2-yl)ethyloxy]-3-(naphthalen-2-yl)phenyl}propionic acid]	≥ 50
Cc1oc(-c2ccccc2)nc1CCOc1ccc(CCC(=O)O)cc1-c1ccc2ccccc2c1 [Compound 064, 3-{4-[2-(5-methyl-2-phenyloxazol-4-yl)ethyloxy]-3-(naphthalen-2-yl)phenyl}propionic acid]	≥ 50
COc1ccc2cc(-c3cc(CCC(=O)O)ccc3OCC3CCCCC3)ccc2c1 [Compound 068, 3-[4-cyclohexylmethyloxy-3-(6-methoxynaphthalen-2-yl)phenyl]propionic acid]	≥ 50
O=C(O)CCc1ccc(OCC2CCCCC2)c(-c2cccc3ccccc23)c1 [Compound 070, 3-[4-cyclohexylmethyloxy-3-(naphthalen-1-yl)phenyl]propionic acid]	≥ 50
O=C(O)CCc1ccc(OCC2CCCCC2)c(-c2ccc3cc(OCCO)ccc3c2)c1 [Compound 071, 3-{4-cyclohexylmethyloxy-3-[6-(2-hydroxyethyloxy)naphthalen-2-yl]phenyl}propionic acid]	≥ 50
O=C(O)CCc1ccc(OCC2CCCCC2)c(-c2ccc3cc(OCC(=O)O)ccc3c2)c1 [Compound 072, 3-[3-(6-carboxymethyloxynaphthalen-2-yl)-4-cyclohexylmethyloxyphenyl]propionic acid]	≥ 50

SMILES	inhibition at 0.4 µM [%]
CN(C)C(=O)COc1ccc2cc(-c3cc(CCC(=O)O)ccc3OCC3CCCCC3)ccc2c1 [Compound 074, 3-{4-cyclohexylmethyloxy-3-[6-(N,N-dimethylcarbamoylmethyloxy)-naphthalen-2-yl]phenyl}propionic acid]	≥ 50
CC(=O)Nc1ccc2cc(-c3cc(CCC(=O)O)ccc3OCC3CCCC3)ccc2c1 [Compound 077, 3-[3-(6-acetylaminonaphthalen-2-yl)-4-cyclopentylmethyloxy-phenyl]propionic acid]	≥ 50
CS(=O)(=O)Nc1ccc2cc(-c3cc(CCC(=O)O)ccc3OCC3CCCC3)ccc2c1 [Compound 085, 3-[4-cyclopentylmethyloxy-3-(6-methanesulfonylaminonaphthalen-2-yl)phenyl]propionic acid]	≥ 50
O=C(O)CCc1ccc(OCC2CCCC2)c(-c2ccc3ccc(NC(=O)c4ccco4)cc3c2)c1 [Compound 090, 3-(4-cyclopentylmethyloxy-3-{7-[(furan-2-carbonyl)amino]naphthalen-2-yl}phenyl)propionic acid]	≥ 50
O=C(O)CCc1cc(Cl)c(OCC2CCCC2)c(-c2ccc3ccccc3c2)c1 [Compound 092, 3-[3-chloro-4-cyclopentylmethyloxy-5-(naphthalen-2-yl)phenyl]propionic acid]	≥ 50
COC(=O)CCc1cc(N)c(OCC2CCCC2)c(-c2ccc3ccccc3c2)c1 [Compound 094, methyl 3-[3-amino-4-cyclopentylmethyloxy-5-(naphthalen-2-yl)phenyl]propionate]	≥ 50
O=C(O)Cc1ccc(OCC2CCCCC2)c(-c2ccc3ccccc3c2)c1 [Compound 096, 4-cyclohexylmethyloxy-3-(naphthalen-2-yl)phenylacetic acid]	≥ 50
Cc1c[nH]c2ccc(-c3cc(CCC(=O)O)ccc3OCC3CCCC3)cc12 [Compound 112, 3-[4-cyclopentylmethyloxy-3-(3-methyl-1H-indol-5-yl)phenyl]propionic acid]	≥ 50
O=C(O)CCc1ccc(OC2CCCC2)c(-c2cccc3[nH]ccc23)c1 [Compound 118, 3-[4-cyclopentyloxy-3-(1H-indol-4-yl)phenyl]propionic acid]	≥ 50
O=C(O)CCc1ccc(OC2CCCCC2)c(-c2cccc3[nH]ccc23)c1 [Compound 120, 3-[4-cyclohexyloxy-3-(1H-indol-4-yl)phenyl]propionic acid]	≥ 50
Cn1ccc2c(-c3cc(CCC(=O)O)ccc3OCC3CCCC3)cccc21 [Compound 122, 3-[4-cyclopentylmethyloxy-3-(1-methyl-1H-indol-4-yl)phenyl]propionic acid]	≥ 50
Cn1ccc2c(-c3cc(CCC(=O)O)ccc3OC3CCCC3)cccc21 [Compound 124, 3-[4-cyclopentyloxy-3-(1-methyl-1H-indol-4-yl)phenyl]propionic acid]	≥ 50
O=C(O)CCc1ccc(OCC2CCCCC2)c(-c2ccc3cc[nH]c3c2)c1 [Compound 128, 3-[4-cyclohexylmethyloxy-3-(1H-indol-6-yl)phenyl]propionic acid]	≥ 50
CCCCOc1ccc(CCC(=O)O)cc1-c1ccc2[nH]ccc2c1 [Compound 130, 3-[4-butyloxy-3-(1H-indol-5-yl)phenyl]propionic acid]	≥ 50
Cc1ccccc1COc1ccc(CCC(=O)O)cc1-c1ccc2[nH]ccc2c1 [Compound 134, 3-[3-(1H-indol-5-yl)-4-(2-methylphenylmethyloxy)phenyl]propionic acid]	≥ 50
Cc1cccc(COc2ccc(CCC(=O)O)cc2-c2ccc3[nH]ccc3c2)c1 [Compound 136, 3-[3-(1H-indol-5-yl)-4-(3-methylphenylmethyloxy)phenyl]propionic acid]	≥ 50
Cc1ccc(COc2ccc(CCC(=O)O)cc2-c2ccc3[nH]ccc3c2)cc1 [Compound 138, 3-[3-(1H-indol-5-yl)-4-(4-methylphenylmethyloxy)phenyl]propionic acid]	≥ 50
O=C(O)CCc1ccc(OCc2cccc(F)c2)c(-c2ccc3[nH]ccc3c2)c1 [Compound 144, 3-[4-(3-fluorophenylmethyloxy)-3-(1H-indol-5-yl)phenyl]propionic acid]	≥ 50
O=C(O)CCc1ccc(OCc2ccccc2C(F)(F)F)c(-c2ccc3[nH]ccc3c2)c1 [Compound 170, 3-{3-(1H-indol-5-yl)-4-[2-(trifluoromethyl)phenylmethyloxy]-phenyl}propionic acid]	≥ 50
